Measurements published in the CheMixHub drug solubility set.

Test: xn = mol fraction of the nth substance listed, in the solute-free solvent

CS(=O)(=O)c1ccc(C(O)C(CF)NC(=O)C(Cl)Cl)cc1 (configuration not stated) + CC(C)O + O
solubility (g/100 g solution)
Settings	278.15 K	283.15 K	288.15 K	293.15 K	298.15 K	303.15 K	308.15 K	313.15 K	318.15 K
x2 = 0.03225	0.082	0.109	0.146	0.189	0.246	0.32	0.403	0.515	0.641
x2 = 0.06974	0.117	0.159	0.216	0.278	0.362	0.488	0.613	0.798	1
x2 = 0.1139	0.16	0.215	0.286	0.379	0.504	0.64	0.828	1.06	1.35
x2 = 0.1666	0.199	0.266	0.353	0.472	0.608	0.787	1.01	1.29	1.64
x2 = 0.2307	0.237	0.317	0.422	0.56	0.717	0.931	1.19	1.5	1.88
x2 = 0.3103	0.276	0.367	0.481	0.629	0.81	1.05	1.34	1.67	2.1
x2 = 0.4117	0.296	0.398	0.516	0.669	0.873	1.14	1.42	1.78	2.24
x2 = 0.5454	0.308	0.411	0.536	0.702	0.9	1.16	1.47	1.89	2.32
x2 = 0.7297	0.309	0.407	0.537	0.697	0.911	1.14	1.47	1.84	2.29

Cc1ccc(Nc2nccc(N(C)c3ccc4c(C)n(C)nc4c3)n2)cc1S(N)(=O)=O + CC#N + CC(C)O
solubility (g/100 g solution)
Settings	288.15 K	293.15 K	298.15 K	303.15 K	308.15 K	313.15 K	318.15 K	323.15 K	328.15 K
x2 = 0.2679	0.00834	0.0123	0.0162	0.0208	0.0257	0.0311	0.0374	0.0456	0.0557
x2 = 0.4939	0.0116	0.0198	0.0273	0.0362	0.0457	0.0552	0.0651	0.0758	0.0876
x2 = 0.6871	0.0161	0.0249	0.0344	0.0445	0.0553	0.0662	0.079	0.0943	0.113
x2 = 0.8541	0.0119	0.0172	0.0243	0.0311	0.0393	0.0478	0.0563	0.0666	0.0803
